Reference: patent US20040038861A1, “Methods and compositions for normalizing lipid levels in mammalian tissues” (priority 2001, published 2004)
Read-outs that look alike come from different tables or passages of the source.

Tests used:
ramp 1/C1ins− receptor = biological target: T1, ramp 1/C1ins− receptor (Mus musculus, UniProt Q60755+Q9WTJ5); assay: cAMP production in L6 myoblasts co-transfected with ramp 1 and C1ins−; assay type: cell-based, murine; conditions: 15 min, FIG. 10
T1 construct: expressed in transfected cells; host or cells: L6 myoblasts (ATCC), transient co-transfection of pcDNA3.1 plasmids
T1 sequence (Q60755 42-496 isoform Q60755-2 limits assumed): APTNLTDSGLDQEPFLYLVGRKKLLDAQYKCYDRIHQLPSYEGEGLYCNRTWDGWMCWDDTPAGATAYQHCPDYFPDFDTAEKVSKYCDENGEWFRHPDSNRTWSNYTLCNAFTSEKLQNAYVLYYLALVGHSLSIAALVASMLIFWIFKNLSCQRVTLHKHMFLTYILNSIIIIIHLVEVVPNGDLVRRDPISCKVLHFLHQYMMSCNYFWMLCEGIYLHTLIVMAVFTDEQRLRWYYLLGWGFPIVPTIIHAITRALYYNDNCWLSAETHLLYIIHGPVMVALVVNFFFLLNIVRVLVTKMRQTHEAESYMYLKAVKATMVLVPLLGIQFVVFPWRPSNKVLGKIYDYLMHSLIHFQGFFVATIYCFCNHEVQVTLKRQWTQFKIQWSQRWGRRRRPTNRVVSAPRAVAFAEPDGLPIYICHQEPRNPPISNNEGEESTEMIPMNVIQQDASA
T1 sequence (Q9WTJ5 27-148 partner): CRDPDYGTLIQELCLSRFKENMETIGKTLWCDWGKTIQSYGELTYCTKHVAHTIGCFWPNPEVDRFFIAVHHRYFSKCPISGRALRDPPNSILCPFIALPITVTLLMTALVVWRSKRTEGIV
Description: Transfection of L6 myoblasts and cos-7 cells, and analysis of radioligand binding. L6 myoblasts and cos-7 cells were obtained from ATCC. Both cell lines were cultered in Dulbecco's modified Eagle's medium (DMEM; Gibco/BRL, high glucose) supplemented with 10% fetal calf serum (Gibco/BRL, Gaithersburg, Md.), L-glutamine (2 mM), penicillin (100 U/ml; Sigma), streptomycin ([…]; Sigma), saline (0.85%), under 5% CO2/95% air at 37° C. The day before transfection, cells were trypsinised and seeded into six-well plates at a density of 2.9×10^5 cells/well in the same medium. For transfection, cells were incubated with a mixture comprising 1 μg each of Qiagen-purified (Qiagen, Valencia, Calif.) plasmids containing C1ins− with either ramp 1 or ramp 3, and Fugene reagent (6 μl; Boehringer Mannheim) in Opti-Mem I medium (Gibco/BRL). The complex was added with serum to cells, which were incubated for a further 48 h.
Determination of cAMP in cultured cells and soleus muscle strips. cAMP concentration was measured in cells seeded in six-well plates and transfected as described. Following aspiration, cells were incubated for 15 min at room temperature in the presence of stated concentrations of ligands in binding buffer. Isobutylmethylxanthine (Sigma) was added to a final concentration of 0.5 mM together with stated concentrations of peptides, and the reaction terminated by aspiration. Cells were washed with 0.5 ml ice-cold TE buffer (10 mM Tris/HCl, 1 mM EDTA, pH 7.6) and rapidly transferred to eppendorf tubes in 1 ml of the same buffer, then boiled for 5 min. Following centrifugation at 12,000 g for 5 min at 4° C., then cooling on ice, duplicate 50 μl aliquots were analyzed for cAMP using an assay system based on competitive binding (Arnersham Pharmacia) according to the manufacturer's instructions.

soleus muscle [1] = assay: cAMP content of isolated soleus muscle from normal fed rats; assay type: cell-based, rat
Description: (§1) Soleus muscle preparation. All experiments were performed according to protocols approved by the Institutional Animal Ethics Committee. 5-6 week-old male Wistar rats (160 g) were kept on a 12:12-h light/dark cycle, and fed and watered ad libitum. Animals were anaesthetised with 50 mg/kg Nembutal (pentobarbitone sodium), then sacrificed by cervical dislocation. Soleus muscles were dissected under oxygenated KHB (118 mM NaCl, 4.75 mM KCl, 1.2 mM MgSO4, 24.8 mM NaHCO3, 1.2 mM KH2PO4, 2.54 mM CaCl2, 10 mM glucose, pH 7.4) and teased into halves, then incubated as described below.
For the measurement of cAMP in muscle, isolated soleus strips were incubated with stated concentrations of peptides, then lyophilized and deproteinized. Each strip was placed in 400 μl of 0.5 M HClO4 with 5 mM EDTA (phosphodiesterase inhibitor) and sonicated three times in 20 s bursts. Tubes were heated for 3-5 min in boiling water to coagulate protein, then centrifuged (12,000 g, 4° C., 2 min). Supernatant (300 μl) was taken and the pH adjusted to 7.0 with 75 μl of 2 M NH4OH. The samples were refrigerated (4° C., 2 h) to precipitate proteins, then centrifuged under the same conditions as above and 50 μl taken for cAMP measurement.

soleus muscle [2] = assay: Incorporation of D[14C(U)]glucose into glycogen in isolated incubated soleus muscle; assay type: cell-based, rat; conditions: for rate of D[14C(U)]glucose incorporation into glycogen: 10 nM peptide, 2 h; for EC50: isolated rat soleus muscle
Description: as §1
Measurement of glycogen metabolism in isolated, incubated soleus muscle. […]. Glycogen was precipitated overnight at −20° C. with 96% ethanol (1.2 ml), followed by centrifugation at 8,000 g (15 min, 4° C.). Pellets were washed twice with the same amount of ethanol then dissolved in water (0.6 ml). Aliquots (0.3 ml) were analyzed for D[^14C(U)] glucose content by liquid scintillation spectrometry.
Data analysis. One way ANOVA, Dunnett's Multiple Comparisons Test, and unpaired Student's t-tests were used to calculate the statistical significance of differences, as appropriate. Dose-response curves were fitted to a sigmoidal dose-response algorithm, as follows: Y=minimum+(maximum−minimum)/([…] log ^(EC50^−X), for 2-DOG-uptake; and by a four parameter logistic model, Y=minimum+(maximum−minimum)/(1+10 log ^(EC50^−X)Hill-Coefficient) for total glycogen and [^14C]glucose incorporation. Calculations were performed using Prism v2.0 (GraphPad Software, San Diego, Calif.) to derive values for half-maximal effective concentration (EC50). Displacement curves derived for competition of bound radioligand with cold ligand in transfected cells were calculated according to a one site competition fit using Prism v2.0.

[3] = biological target: CGRP-1 binding sites in rat skeletal muscle membrane; conditions: rat skeletal muscle membrane preparations, cited from earlier work
[4] = absence of insulin, control 4.8±0.3
[5] = maximal insulin, control 27.6±1.4

Row | Substance | cAMP production in co-transfected myoblasts (ramp 1/C1ins− receptor) | maximal increase in cAMP content (soleus muscle [1]; 10 nM or 100 nM amylin, absence or presence of insulin) | effect of picomolar concentrations on muscle cAMP levels (soleus muscle [1]; FIG. 13C) | rate of D[14C(U)]glucose incorporation into glycogen (soleus muscle [2]; [4]) [μmol/g dry-wt muscle/h] | rate of D[14C(U)]glucose incorporation into glycogen (soleus muscle [2]; [5]) [μmol/g dry-wt muscle/h] | EC50 (soleus muscle [2]; absence of insulin) [nM] | EC50 (soleus muscle [2]; human insulin 23.7 nM) [nM] | muscle cAMP content (soleus muscle [1]; CGRP at both 5 nM and 100 nM, absence or presence of insulin (23.7 nM)) | cAMP content, agonist alone (soleus muscle [1]; normal fed, 100 nM CGRP or adrenaline, control 3.9±0.2) [pmol/mg] | cAMP increase with 1 pM CGRP (soleus muscle [1]; normal fed, 1 hr incubation) | Kd ([3]; read-out: Kd, high affinity binding site) [nM] | Kd ([3]; read-out: Kd, second binding site) [nM]
1 | Rat amylin | dose-dependent increases of cAMP production | about 2 fold | no effect | 2.7±0.8 | 16.0±2.5 | 9.4 | 9.2 | – | – | – | – | –
2 | rat CGRP-1 | dose-dependent increases of cAMP production | – | – | 2.8±0.3 | 13.7±0.7 | 3.1 | 0.7 | significant increases in muscle cAMP content | 6.9 ± 0.8 | No significant cAMP increase | ~0.037 | ~6
